# Patent US10888505B2, “Dosage of foam for delivering consumer desired dosage volume, surfactant amount, and scalp health agent amount in an optimal formulation space” (The Procter & Gamble Company, priority 2016, dated 2021)
# Like-named read-outs stand apart in the source and are kept apart here.
# System: Malassezia furfur
# Conditions: inhibition of growth of the Malassezia fungus
# Procedure: Malassezia furfur is grown in a flask containing mDixon medium (see E. Gueho, et. al. Antoninie Leeuwenhock (1996), no. 69, 337-55, which description is incorporated by reference herein). Dilutions of solubilized anti-microbial active or diluted products are then added to test tubes containing molten mDixon agar. M. furfur inoculum is added to each tube of molten agar, the tube vortexed, and the contents poured into separate sterile petri dishes. After the plates are incubated, they are observed for visible M. furfur growth. The lowest tested dilution of anti-microbial active or finished product that comprises that yields no growth is defined as the Minimal Inhibitory Concentration (MIC).
compound,measurement,setting,value
"[O-]n1ccccc1=S.[O-]n1ccccc1=S.[Zn+2] [ZPT, zinc salt of 1-hydroxy-2-pyridinethione]",Minimum Inhibitory Concentration (MIC),parts active per million parts product and dilution media,5 ppm
same,Minimum Inhibitory Concentration (MIC),same MIC expressed as g active per 100 g (product + dilution solution),0.0005 g/100 g
